Laboratory results reported in patent US20160068861A1, “METHOD FOR DETECTING PROTEIN STABILITY AND USES THEREOF” (priority 2013, published 2016).

How the values were obtained:
CZ-1 cells = assay: MTT detection of cell viability, BTZ-sensitive cell line; format: cell-based, human
Procedure: (§1) CZ-1 cells can be obtained from Hou Jian Laboratory of Shanghai Changzheng Hospital (Hou J, Lin F Y, Zhang B, Zhang L Z, Ding S Q, Establishment and biological characteristics of human multiple myeloma cell line CZ-1. Chinese Medical Journal [2004, 117(1):115-119]); CZ-1/R cell lines was constructed by the inventor's Laboratories, and can be obtained from the inventor's laboratory (http://www.sibcb.ac.cn/PI.asp?id=129).
(§2) Plates were incubated for 24-72 hours. To each well was added 20 ul MTT (3-(4,5-dimethyl-2-thiazole)-2,5-diphenyl tetrazolium bromide) solution, culture was continued for another 4 hrs. To each well was added 150 ul of dimethyl sulfoxide, shaken on a shaker at low speed for 10 mins for thoroughly dissolving the crystals. Absorbance of each well was measured on an enzyme-linked immune detector at OD 490 nm (570 nm).

CZ-1/R cells = assay: MTT detection of cell viability, BTZ-resistant cell line; format: cell-based, human
Procedure: as §1, §2

[1] = BTZ in combination with 17-AAG, FIG. 9
[2] = BTZ in combination with C75, FIG. 9

Measured: killing effects (MTT)

CC(C)C[C@H](NC(=O)[C@H](Cc1ccccc1)NC(=O)c1cnccn1)B(O)O [BTZ, Bortezomib]
significant killing effects: CZ-1 cells; [1] | CZ-1 cells; [2] | CZ-1/R cells; [1] | CZ-1/R cells; [2]
